Measured values taken from ChEMBL document CHEMBL1201862, “PubChem BioAssay data set” (2004).
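In this assay, cells in 96-well plates receive the compound at five concentrations for 48 hours. Endpoints are linearly interpolated between the surrounding concentrations. GI50: concentration for 50% inhibition of growth.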 Activity calls are given as the source filed them. No stated cut-off is given here; in the data, active = GI50 up to about 1.1 µM and inactive = higher.

Columns and labels:
Assay in all cases: NCI anticancer screen, dose series, 48 h
PC-3 = tested on: PC-3
MCF7 = tested on: MCF7
HOP-92 = tested on: HOP-92
CAKI-1 = tested on: CAKI-1
OVCAR-5 = tested on: OVCAR-5
HT-29 = tested on: HT-29
KM-20L2 = tested on: KM-20L2
OVCAR-8 = tested on: OVCAR-8
RXF 631 = tested on: RXF 631
SNB-19 = tested on: SNB-19
SF-539 = tested on: SF-539
HL-60 = tested on: HL-60
Hs-578T = tested on: Hs-578T
KM12 = tested on: KM12
SF-268 = tested on: SF-268
K562 = tested on: K562
LXFL 529 = tested on: LXFL 529
UACC-257 = tested on: UACC-257
UO-31 = tested on: UO-31
M14 = tested on: M14
SK-MEL-2 = tested on: SK-MEL-2
RPMI-8226 = tested on: RPMI-8226
MOLT-4 = tested on: MOLT-4
LOX IMVI = tested on: LOX IMVI
SF-295 = tested on: SF-295
SR = tested on: SR
MDA-N = tested on: MDA-N
ACHN = tested on: ACHN
RXF 393 = tested on: RXF 393
OVCAR-3 = tested on: OVCAR-3
SW-620 = tested on: SW-620
HCT-116 = tested on: HCT-116
DMS-273 = tested on: DMS-273
SNB-78 = tested on: SNB-78
A498 = tested on: A498
SK-MEL-28 = tested on: SK-MEL-28
TK-10 = tested on: TK-10
HOP-62 = tested on: HOP-62
786-0 = tested on: 786-0
OVCAR-4 = tested on: OVCAR-4
SK-MEL-5 = tested on: SK-MEL-5
DLD-1 = tested on: DLD-1
M19-MEL = tested on: M19-MEL
MDA-MB-231 = tested on: MDA-MB-231
NCI-H226 = tested on: NCI-H226
SN12C = tested on: SN12C
XF498 = tested on: XF498
MDA-MB-435 = tested on: MDA-MB-435
HCT-15 = tested on: HCT-15
COLO 205 = tested on: COLO 205
EKVX = tested on: EKVX
HCC 2998 = tested on: HCC 2998
T47D = tested on: T47D
NCI-H460 = tested on: NCI-H460
SK-OV-3 = tested on: SK-OV-3
IGROV-1 = tested on: IGROV-1
CCRF-CEM = tested on: CCRF-CEM
NCI-H522 = tested on: NCI-H522
Malme-3M = tested on: Malme-3M
BT-549 = tested on: BT-549
UACC-62 = tested on: UACC-62
HOP-18 = tested on: HOP-18
NCI-H23 = tested on: NCI-H23
DU-145 = tested on: DU-145
SNB-75 = tested on: SNB-75
A549 = tested on: A549
U-251 = tested on: U-251
DMS-114 = tested on: DMS-114

In the case of `C[C@]12CCNC(=O)C=C1CC[C@@H]1C2CC[C@@]2(C)C1CC[C@@H]2OC(=O)COc1ccc(N(CCCl)CCCl)cc1` (stereo partly specified), the GI50 (PC-3) is reported as > 10 µM (inactive), the GI50 (MCF7) is reported as 1.29 µM (inactive) and the GI50 (HOP-92) is reported as 7.73 µM (inactive). The GI50 (CAKI-1) was 4.15 µM (inactive), the GI50 (OVCAR-5) was 12.6 µM (inactive) and the GI50 (HT-29) was 8.59 µM (inactive). The GI50 (KM-20L2) was 14.4 µM (inactive), the GI50 (OVCAR-8) was 4.09 µM (inactive) and the GI50 (RXF 631) was 4.71 µM (inactive). For the same compound, the GI50 (SNB-19) was 10.8 µM (inactive), the GI50 (SF-539) was 2.07 µM (inactive) and the GI50 (HL-60) was 1.32 µM (inactive). The GI50 (Hs-578T) was 17.7 µM (inactive), the GI50 (KM12) was 8.28 µM (inactive) and the GI50 (SF-268) was 2.74 µM (inactive). For the same compound, the GI50 (K562) was 2.91 µM (inactive), the GI50 (LXFL 529) was 7.57 µM (inactive) and the GI50 (UACC-257) was 13.8 µM (inactive). For the same compound, the GI50 (UO-31) was 4.76 µM (inactive), the GI50 (M14) was 6.35 µM (inactive) and the GI50 (SK-MEL-2) was 18.5 µM (inactive). For the same compound, the GI50 (RPMI-8226) was 4.65 µM (inactive), the GI50 (MOLT-4) was 0.145 µM (active) and the GI50 (LOX IMVI) was 3.21 µM (inactive). The GI50 (SF-295) was 8.09 µM (inactive), the GI50 (SR) was 0.138 µM (active) and the GI50 (MDA-N) was 13.3 µM (inactive). The GI50 (ACHN) was 0.982 µM (active), the GI50 (RXF 393) was 4.37 µM (inactive) and the GI50 (OVCAR-3) was 3.05 µM (inactive). The GI50 (SW-620) was 2.23 µM (inactive), the GI50 (HCT-116) was 3.73 µM (inactive) and the GI50 (DMS-273) was 0.638 µM (active). For the same compound, the GI50 (SNB-78) was 28.6 µM (inactive), the GI50 (A498) was 18.6 µM (inactive) and the GI50 (SK-MEL-28) was 17 µM (inactive). The GI50 (TK-10) was 17.6 µM (inactive), the GI50 (HOP-62) was 2.84 µM (inactive) and the GI50 (786-0) was 0.964 µM (active). For the same compound, the GI50 (OVCAR-4) was 6.11 µM (inactive), the GI50 (SK-MEL-5) was 7.33 µM (inactive) and the GI50 (DLD-1) was 4.56 µM (inactive). The GI50 (M19-MEL) was 4.91 µM (inactive), the GI50 (MDA-MB-231) was 17.5 µM (inactive) and the GI50 (NCI-H226) was 13.1 µM (inactive). For the same compound, the GI50 (SN12C) was 4.65 µM (inactive), the GI50 (XF498) was 1.35 µM (inactive) and the GI50 (MDA-MB-435) was 21.8 µM (inactive). The GI50 (HCT-15) was 2.68 µM, the GI50 (COLO 205) was 9.08 µM (inactive) and the GI50 (EKVX) was 16.1 µM (inactive). For the same compound, the GI50 (HCC 2998) was 3.84 µM (inactive), the GI50 (T47D) was 1.88 µM (inactive) and the GI50 (NCI-H460) was 0.308 µM (active). The GI50 (SK-OV-3) was 6.27 µM (inactive), the GI50 (IGROV-1) was 13.1 µM (inactive) and the GI50 (CCRF-CEM) was 0.326 µM (active). The GI50 (NCI-H522) was 1.65 µM (inactive), the GI50 (Malme-3M) was 8.45 µM (inactive) and the GI50 (BT-549) was 17.5 µM (inactive). The GI50 (UACC-62) was 1.28 µM (inactive), the GI50 (HOP-18) was 18.8 µM (inactive) and the GI50 (NCI-H23) was 2.99 µM (inactive). For the same compound, the GI50 (DU-145) was 4.54 µM (inactive), the GI50 (SNB-75) was 8.75 µM (inactive) and the GI50 (A549) was 5.37 µM (inactive). For the same compound, the GI50 (U-251) was 2.03 µM (inactive).
In the case of `CC(C)(C)[Si](C)(C)O/N=C\c1ccc(O[Si](C)(C)C(C)(C)C)cc1`, the GI50 (CAKI-1) is reported as > 100 µM (inactive), the GI50 (OVCAR-5) is reported as 44.1 µM (inactive) and the GI50 (HT-29) is reported as 64.4 µM (inactive). The GI50 (KM-20L2) was 44.7 µM (inactive), the GI50 (OVCAR-8) was 62.8 µM (inactive) and the GI50 (RXF 631) was 24 µM (inactive). The GI50 (SNB-19) was 72.4 µM (inactive), the GI50 (SF-539) was 42.5 µM (inactive) and the GI50 (HL-60) was 36.5 µM (inactive). The GI50 (KM12) was > 100 µM (inactive), the GI50 (SF-268) was 49.5 µM (inactive) and the GI50 (K562) was 45.9 µM (inactive). For the same compound, the GI50 (LXFL 529) was 84.9 µM (inactive), the GI50 (UACC-257) was > 100 µM (inactive) and the GI50 (UO-31) was 50.9 µM (inactive). For the same compound, the GI50 (M14) was 62.1 µM (inactive), the GI50 (SK-MEL-2) was > 100 µM (inactive) and the GI50 (RPMI-8226) was 57.5 µM (inactive). For the same compound, the GI50 (MOLT-4) was 41.3 µM (inactive), the GI50 (LOX IMVI) was 21.3 µM (inactive) and the GI50 (SF-295) was 52.5 µM (inactive). The GI50 (ACHN) was 37.6 µM (inactive), the GI50 (RXF 393) was 24.5 µM (inactive) and the GI50 (OVCAR-3) was 20.2 µM (inactive). For the same compound, the GI50 (SW-620) was > 100 µM (inactive), the GI50 (HCT-116) was 24.2 µM (inactive) and the GI50 (DMS-273) was > 100 µM (inactive). For the same compound, the GI50 (SNB-78) was > 100 µM (inactive), the GI50 (A498) was 52.4 µM (inactive) and the GI50 (TK-10) was > 100 µM (inactive). For the same compound, the GI50 (HOP-62) was > 100 µM (inactive), the GI50 (DMS-114) was 25.9 µM (inactive) and the GI50 (786-0) was 38.5 µM (inactive). For the same compound, the GI50 (OVCAR-4) was > 100 µM (inactive), the GI50 (SK-MEL-5) was > 100 µM (inactive) and the GI50 (DLD-1) was > 100 µM (inactive). For the same compound, the GI50 (M19-MEL) was 41.3 µM (inactive), the GI50 (SN12C) was 61.2 µM (inactive) and the GI50 (XF498) was 31.8 µM (inactive). The GI50 (HCT-15) was 33.3 µM, the GI50 (COLO 205) was > 100 µM (inactive) and the GI50 (EKVX) was > 100 µM (inactive). For the same compound, the GI50 (HCC 2998) was 36.8 µM (inactive), the GI50 (NCI-H460) was > 100 µM (inactive) and the GI50 (SK-OV-3) was > 100 µM (inactive). The GI50 (IGROV-1) was > 100 µM (inactive), the GI50 (CCRF-CEM) was 49.8 µM (inactive) and the GI50 (Malme-3M) was > 100 µM (inactive). For the same compound, the GI50 (UACC-62) was > 100 µM (inactive), the GI50 (HOP-18) was > 100 µM (inactive) and the GI50 (NCI-H23) was > 100 µM (inactive). For the same compound, the GI50 (SNB-75) was 72.1 µM (inactive), the GI50 (A549) was 92.7 µM (inactive) and the GI50 (U-251) was 25.2 µM (inactive).
